Assay results taken from US12448382B2, “Heterocyclic compounds for mediating tyrosine kinase 2 activity” (GUANGZHOU INNOCARE PHARMA TECH CO., LTD., priority 2019, dated 2025).

Columns and labels:
[1] = target: T1, human recombinant TYK2 protein (Homo sapiens, UniProt P29597); test: TYK2 Inhibition Assay (HTRF kinase assay); format: biochemical; conditions: human recombinant TYK2, 11.25 μM ATP substrate solution
T1 construct: purchased Carna Biosciences 08-147
T1 sequence (P29597 871-1187 limits assumed): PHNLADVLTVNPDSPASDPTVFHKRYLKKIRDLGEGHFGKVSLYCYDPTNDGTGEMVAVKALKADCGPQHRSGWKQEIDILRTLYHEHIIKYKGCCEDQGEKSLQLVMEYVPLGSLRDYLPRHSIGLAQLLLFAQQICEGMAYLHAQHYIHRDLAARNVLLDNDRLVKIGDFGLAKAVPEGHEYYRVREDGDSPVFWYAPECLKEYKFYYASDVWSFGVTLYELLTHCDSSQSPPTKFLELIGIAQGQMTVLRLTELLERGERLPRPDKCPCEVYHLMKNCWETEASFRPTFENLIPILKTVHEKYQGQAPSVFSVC
Method: The effect of the compounds of the present invention on the enzymatic activity of TYK2 was assessed by detecting the substrate phosphorylation level in a kinase reaction using the HTRF kinase assay detection kit (Cisbio, Cat. No. 62TK0PEC).
(§1) The experimental method is generally described below:
A reaction buffer contained the following components: an enzyme reaction buffer (1×), 5 mM MgCl2 mM DTT and 0.01% Brij35 from the kit. A TYK2 kinase solution contained human recombinant TYK2 protein (Carna Biosciences, 08-147) diluted in the reaction buffer to 0.25 ng/μL. A substrate reaction solution contained 11.25 μM ATP and 0.5 μM of a biotinylated tyrosine kinase substrate from the kit in the reaction buffer. A detection solution contained 0.1 ng/μL Eu^3+-labeled cage antibody (Cisbio, 61T66KLB) and 25 nM streptavidin-1 added XL665 (Cisbio, 610SAXLB) in the reaction buffer.
(§2) The test compound was dissolved in DMSO to 10 μM, followed by a serial 4-fold dilution with DMSO to a minimum concentration of 0.061 nM. Each concentration was further diluted 40-fold with the reaction buffer.
(§3) To a 384-well assay plate (Corning, 3674) were added 4 μL of compound solution and 2 μL of TYK2 kinase solution. The mixture was mixed and incubated at room temperature for 15 minutes, and then added with 4 μL of the substrate reaction solution. After further incubation at room temperature for 40 minutes, the reaction mixture was added with an equal volume of 10 μL detection solution and allowed to stand at room temperature for 30 minutes. An Envision plate reader (Perkin Elmer) was then used to measure the progress of the reaction at 620 nm and 665 nm. The ratio of absorbances at 665 nm and 620 nm was positively correlated with the degree of substrate phosphorylation, therefore the activity of TYK2 kinase was detected. In the experiment, the group without TYK2 kinase protein was treated as the 100% inhibition group, and the group with TYK2 kinase protein but not the test compound was treated as the 0% inhibition group. The percentage of inhibition on TYK2 kinase activity by the test, compound was calculated using the following formula: Percentage of inhibition=100−100*(ratiocompound−ratio100% inhibition)/(ratio0% inhibition−ratio100% inhibition)
The IC50 value of the test compound was calculated from 8 concentration points using the XLfit software (ID Business Solutions Ltd., UK) by the following formula: Y=Bottom+(Top−Bottom)/(1+10^((log IC50−X)slope factor))
(§4) Where Y was the percentage of inhibition, X was the logarithm of the concentration of the test compound, Bottom was the bottom plateau value of the S-shaped curve, Top was the top plateau value of the S-shaped curve, and slope factor was the slope coefficient of the curve.

[2] = target: T2, human recombinant JAK2 protein (Homo sapiens, UniProt O60674); test: JAK2 Inhibition Assay (HTRF kinase assay); format: biochemical; conditions: human recombinant JAK2, 2.5 μM ATP substrate solution
T2 construct: purchased Carna Biosciences 08-045
Method: The effect of the compounds of the present invention on the enzymatic activity of JAK2 was assessed by detecting the substrate phosphorylation level in a kinase reaction using the HTRF kinase assay detection kit (Cisbio, Cat. No. 62TK0PEC).
as §1
A reaction buffer contained the following components: an enzyme reaction buffer (1×), 5 mM MgCl2, 1 mM DTT and 0.01% Brij35 from the kit. A JAK2 kinase solution contained a human recombinant JAK2 protein (Carna Biosciences, 08-045) diluted in the reaction buffer to 0.15 ng/μL. A substrate reaction solution contained 2.5 μM ATP and 0.25 μM of a biotinylated tyrosine kinase substrate from the kit in the reaction buffer. A detection solution contained 0.1 ng/μL Eu^3+-labeled cage antibody (Cisbio, 61T66KLB) and 12.5 nM streptavidin-labeled XL665 (Cisbio, 610SAXLB) in the reaction buffer.
as §2
as §3, with “JAK2” for “TYK2”, “30” for “40”, “test” for “test,”
The IC50 value of the test compound was calculated from 8 concentration points using the XLfit softwere (ID Business Solutions Ltd., UK) by the following formula: Y=Bottom+(Top−Bottom)/(1+10^((log IC50−X)×slope factor))
Where Y was the percentage of inhibition, X was the logarithm of the concentration of the test compound. Bottom was the bottom plateau value of the S-shaped curve, Top was the top plateau value of the S-shaped curve, and slope factor was the slope coefficient of the curve.

[3] = tested on: IL-12-induced IFN-γ secretion in NK92 cells; test: Inhibition of IL-12-induced IFN-γ Secretion in NK92 Cells (ELISA); format: cell-based, human; conditions: Homo sapiens, 24 hours incubation, 8 concentration points, read-out: IC50 (NK92_IL12/IFNγ)
Method: Inhibition of IL-12-induced IFN-γ Secretion in NK92 Cells
The effect of the compounds of the present invention on IFN-γ secretion induced by IL-12 in NK92 cells was evaluated by an enzyme-linked immunosorbent assay (ELISA).
IL-12 receptor is mainly expressed in activated T-cells, NK cells (NK92 is a NK cell line), DC cells, and B-cells. When binding to IL-12, it activates JAK2/TYK2 signal transduction pathway within NK cells and T lymphocytes, thereby inducing secretion of IFN-γ.
as §1
The test compound was dissolved in DMSO to 2.5 mM, followed by a serial 4-fold dilution with DMSO to a minimum concentration of […]. Each concentration was further diluted 50-fold with an FBS-free MEMα medium (Gibco, 12561-056).
NK92 cells (Nanjing Cobioer, CBP60980) were cultured in a complete MEMα medium containing 12.5% FBS (Ausbian, VS500T), 12.5% horse serum (Gibco, 16050-122), 0.02 mM folic acid (Sigma, F8758), 0.2 mM inositol (Sigma, 17850), 0.55 mM β-mercaptoethanol (Gibco, 21985-023), 200 U/mL IL-2 (R&D Systems, 202-1L), and 100 U/mL penicillin (Thermofisher, 15140122). When covering 80-90% of the culture container surface, the cells were dispersed and plated on a 96-well plate (Thermofisher, 167425) with 100,000 cells per well (80 μL of the complete MEMα medium without IL-2). The 96-well plate was then incubated overnight in a 37° C./5% CO2 incubator.
After overnight incubation, 10 μL of the test compound and 10 μL of 50 ng/mL IL-12 (R & D Systems, 219-1L) were added to each well and mix gently, and the 96-well plate was incubated in the 37° C./5% CO2 incubator for additional 24 hours. The plate as centrifuged at 800 rpm for 10 minutes at room temperature and 50 μL of the supernatant from each well was transferred to another 96-well plate (Sigma, CLS3695) coated with anti-IFN-γ antibody. The amount of IFN-γ secretion was detected following the instruction from the Human IFN-γ DuoSet ELISA kit (R & D Systems, DY285B). In the experiment, the group with IL-12 and the test compound being replaced with the MEMα medium was the non-stimulated control group (100% inhibition), and the group with IL-12 and 0.2% DMSO was the stimulated group (0% inhibition). The percentage of inhibition on IL-12 induced IFN-γ secretion in NK-92 cells by the test compound was calculated using the following formula: Percentage of inhibition=100−100*(signalcompound−signalnon-stimulated control)/(signalstimulated control−signalnon-stimulated control)
The IC50 value of the test compound was calculated front 8 concentration points using the XLfit software (ID Business Solutions Ltd., UK) by the following formula: Y=Bottom+(Top−Bottom)/(1+10^((log IC50−X)×slope factor))
as §4

T2 sequence (O60674 826-1132 limits assumed): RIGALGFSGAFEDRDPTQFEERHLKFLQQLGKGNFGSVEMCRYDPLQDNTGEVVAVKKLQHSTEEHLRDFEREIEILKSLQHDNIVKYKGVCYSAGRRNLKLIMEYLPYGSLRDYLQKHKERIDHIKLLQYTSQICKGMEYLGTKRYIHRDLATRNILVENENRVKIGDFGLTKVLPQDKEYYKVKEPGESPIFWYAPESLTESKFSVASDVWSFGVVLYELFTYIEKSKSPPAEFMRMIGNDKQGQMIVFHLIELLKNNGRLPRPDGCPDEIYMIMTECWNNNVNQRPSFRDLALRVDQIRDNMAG

| SMILES | IC50 [1] | IC50 [2] | IC50 [3] |
| --- | --- | --- | --- |
| Cn1cc(Nc2ncc(Cl)c(N3C[C@@]4(C)CN(CC#N)C(=O)[C@@]4(C)C3)n2)cn1 (racemic) [Compound 92, cis-2-(5-(5-Chloro-2-((1-methyl-1H-pyrazol-4-yl)amino)pyrimidin-4-yl)-3a,6a-dimethyl-1-oxohexahydropyrrolo[3,4-c]pyrrol-2(1H)-yl)acetonitrile] | 1.1 nM | 4.1 nM | 398 nM |
| Cn1cc(Nc2ncc(Cl)c(N3C[C@H]4CN(C(=O)CC#N)C[C@]4(C)C3)n2)cn1 (racemic) [Compound 100, trans-3-(5-(5-chloro-2((1-methyl-1H-pyrazol-4-yl)amino)pyrimidin-4-yl)-3a-methylhexahydropyrrolo[3,4-c]pyrrol-2(1H)-yl)-3-oxopropanenitrile] | 2.2 nM | 5 nM | 763 nM |
| Cn1cc(Nc2nccc(N3C[C@@H]4CN(Cc5ccno5)C[C@]4(C)C3)n2)cn1 (relative stereo) [Compound 69, cis-4-(5-(isoxazol-5-ylmethyl)-3a-methylhexahydropyrrolo[3,4-c]pyrrol-2(1H)-yl)-N-(1-methyl-1H-pyrazol-4-yl)pyrimidin-2-amine] | 98 nM | 156 nM | 7060 nM |
| CCNC(=O)c1ccc(Nc2ncc(F)c(N3C[C@]4(C)CN(C(=O)C5CC5(F)F)C[C@]4(C)C3)n2)cc1 (stereo partly drawn) [Compound 10, 4-((4-((3aR,6aS)-5-(2,2-difluorocyclopropane-1-carbonyl)-3a,6a-dimethylhexahydropyrrolo[3,4-c]pyrrol-2(IH)-yl)-5-fluoropyrimidin-2-yl)amino)-N-ethylbenzamide] | 2.4 nM | 15 nM | 3800 nM |
| Cn1cc(Nc2ncc(Cl)c(N3C[C@]4(C)CN(C(=O)C5CC5)C[C@]4(C)C3)n2)cn1 [Compound 12, ((3aR,6aS)-5-(5-chloro-2-((1-methyl-1H-pyrazol-4-yl)amino)pyrimidin-4-yl)-3a,6a-dimethylhexahydropyrrolo[3,4-c]pyrrol-2(1H)-yl)(cyclopropyl)methanone] | 1.1 nM | 4.2 nM | 419 nM |
| Cn1cc(Nc2ncc(F)c(N3C[C@]4(C)CN(CC(F)F)C[C@]4(C)C3)n2)cn1 [Compound 14, 4-((3aR,6aS)-5-(2,2-difluoroethyl)-3a,6a-dimethylhexahydropyrrolo[3,4-c]pyrrol-2(1H)-yl)-5-fluoro-N-(1-methyl-1H-pyrazol-4-yl)pyrimidin-2-amine] | 14 nM | 68 nM | 1320 nM |

Continued by falling IC50 [1], values first:

| IC50 [1] | IC50 [2] | IC50 [3] | SMILES |
| --- | --- | --- | --- |
| 21 nM | 137 nM | 6770 nM | Cn1cc(Nc2ncc(F)c(N3C[C@]4(C)CN(C(=O)C5CC5)C[C@]4(C)C3)n2)cn1 [Compound 11] |
| 8.5 nM | 170 nM | 4140 nM | C[C@@]12CN(C(=O)C3CC3)C[C@]1(C)CN(c1nc(Nc3cnn(CCO)c3)ncc1F)C2 [Compound 13] |
| 3.4 nM | 4.5 nM | 824 nM | Cc1cnc(Nc2cnn(C)c2)nc1N1C[C@@H]2CN(C(=O)[C@@H]3CC3(F)F)C[C@]2(C)C1 (racemic) [Compound 72] |
| 3.3 nM | 6 nM | 278 nM | Cc1cnc(Nc2cnn(C)c2)nc1N1C[C@@H]2CN(Cc3ccno3)C[C@]2(C)C1 (racemic) [Compound 73, cis-4-(5-(isoxazol-5-ylmethyl)-3a-methylhexahydropyrrolo[3,4-c]pyrrol-2(1H)-yl)-5-methyl-N-(1-methyl-1H-pyrazol-4-yl)pyrimidin-2-amine] |
| 1.6 nM | 2.4 nM | 209 nM | Cn1cc(Nc2ncc(Cl)c(N3C[C@@H]4CN(Cc5ccno5)C[C@]4(C)C3)n2)cn1 (racemic) [Compound 74, cis-5-chloro-4-(5-(isoxazol-5-ylmethyl)-3a-methylhexahydropyrrolo[3,4-c]pyrrol-2(1H)-yl)-N-(1-methyl-1H-pyrazol-4-yl)pyrimidin-2-amine] |
